Molecules are shown by their SMILES.

One series concerns the target human mPGES1 (Homo sapiens (Human), UniProt O14684). Put plainly: Inhibition activity for human mPGES1 (enzyme assay, PGE2 HTRF). The series is classed as biochemical. The conditions noted are these: membrane protein from HEK-293 F transfected with human mPGES1. In general terms: TR-FRET usually uses a lanthanide donor and a delayed reading to cut background.
Series [1] concerns secretion of PGE2 by A549 cells stimulated with IL-1β. Kind of series: Inhibition of the secretion of PGE2 by A549 cells stimulated with IL-1β. In kind it is cell-based. The conditions noted are these: Homo sapiens, A549; IL-1β 0.2 ng/mL, 24 hours. The procedure, abridged: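 A549 cells pretreated 30 min at 37° C with compound (seven concentrations, 0.011–11111 nM) before IL-1β at 0.2 ng/mL final, then 24 h at 37° C.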

Series [2] is described as follows: Pharmacokinetics assay in rats. The series is classed as in vivo. The note with it: both sexes, Sprague-Dawley, rat, plasma, po, SD rats, intragastric, 5 mg/kg. As for the experimental part:
Rats were used as test animals. The drug concentration in plasma at different time points was determined by LC/MS/MS after administration of the compounds of Example 8, Example 11, Example 14, Example 17, Example 20, Example 27, Example 33, Example 35, Example 36, Example 37 and Example 48 to rats. The pharmacokinetic behavior of the present compounds was studied and evaluated in rats.
Forty four (44) healthy adult Sprague-Dawley (SD) rats, half male and half female, which were purchased from SINO-BRITSH SIPPR/BK LAB. ANIMAL LTD., CO, with Certificate No.: SCXK (Shanghai) 2008-0016, were divided into 11 groups, with 4 rats in each group.
The appropriate amount of test compounds was weighed, and mixed with 25 μL Tween 80 and Labrasol to prepare a 0.6 mg/mL suspension by ultrasonication.
After an overnight fast, 44 SD rats, half male and half female, were divided into 11 groups, and administered intragastrically at a dose of 5.0 mg/kg and an administration volume of 10 mL/kg.
Blood (0.1 mL) was sampled from the orbital sinus before administration and 0.5 h, 1.0 h, 2.0 h, 4.0 h, 6.0 h, 8.0 h, 11.0 h, and 24.0 h after administration. The samples were stored in EDTA anticoagulation tubes, and centrifuged for 5 minutes at 3,500 rpm to separate the blood plasma. The plasma samples were stored at −20° C. The rats were fed 2 hours after administration.
The plasma concentration of the test compounds in rat after intragastric administration was determined by LC-MS/MS. The linearity of the method is 5.00-2000 ng/mL and 1.00-2000 ng/ml, and the minimum of quantification is 5.00 ng/mL and 1.00 ng/mL.
Plasma samples were analyzed after pretreatment by protein precipitation.

Sequence of human mPGES1 (O14684 whole entry): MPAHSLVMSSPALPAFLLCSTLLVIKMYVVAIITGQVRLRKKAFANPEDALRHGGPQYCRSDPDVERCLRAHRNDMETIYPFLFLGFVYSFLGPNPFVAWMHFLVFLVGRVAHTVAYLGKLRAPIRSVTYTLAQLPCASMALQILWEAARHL

Broadly, the IC50 is the midpoint of a concentration-inhibition curve. One may read the AUC as concentration integrated over time. In general, half-life refers to the time needed for the level to fall by half in the phase considered. One may read the MRT as the average time that molecules of a dose stay in the body. What is called Cmax is the peak of the concentration-time curve. Take `CC(C)(F)C(=O)NCc1cnc(C(F)F)c(C(=O)Nc2ccc3oc(-c4cccc(C(F)(F)F)c4)cc3c2)c1` [Example 48, 2-(Difluoromethyl)-5-(((2-fluoro-2-methyl-propanoyl)amino)methyl)-N-(2-(3-(trifluoromethyl)phenyl)benzofuran-5-yl)nicotinamide]: the IC50 came to 3.58 nM at human mPGES1 and 14.1 nM in series [1]. In series [2] (read-out: Apparent Distribution Volume Vz/F), the Vd/F is 7.53 ± 1.69 L/kg. Also, in series [2] (read-out: Area Under Curve AUC), the exposure (AUC) worked out at 2260 ± 767 ng·h/mL. Also, the CL/F in series [2] (read-out: Clearance CLz/F) is 41 ± 16.7 mL/min/kg. Also, the half-life in series [2] (read-out: Half-Life T½ (converted)) is 2.3 ± 0.76 h. In series [2] (read-out: Mean Residence Time MRT), the MRT stood at 6.3 ± 1.62 h. In addition, the Cmax in series [2] (read-out: Plasma Conc. Cmax) is 263 ± 66 ng/mL.
